# Experimental data reported in patent US20170210751A1, “PRMT5 INHIBITORS AND USES THEREOF” (Epizyme, Inc., priority 2014, published 2017).
# What was measured:
# Z-138 cell line = assay: Z-138 Proliferation Assay (Cell Titer Glo); assay type: cell-based; conditions: Homo sapiens, 120 h; Z-138 cells, 5 days incubation, ATP (Cell Titer Glo)
# Method in brief: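 Z-138 cells in RPMI with 10% FBS exposed 5 days at 37 °C to nine-point 3-fold dilutions, top 20 μM final, 0.2% DMSO, triplicate. ATP-based CellTiter-Glo luminescence; IC50 from 4-parameter fit of normalized curves.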
# PRMT5/MEP50 = target: T1, PRMT5/MEP50 (Homo sapiens, UniProt O14744); assay: PRMT5 Biochemical Assay (PRMT5/MEP50 enzyme assay on peptide substrate, 3H-SAM Flashplate); conditions: PRMT5/MEP50 4 nM, 3H-SAM 75 nM, peptide 40 nM, 30 min preincubation at 25 degrees Celsius
# T1 construct: Flag-PRMT5; made in house; host or cells: Spodoptera frugiperda (SF9) insect cells, baculovirus (pDEST8)
# T1 sequence (O14744 with tags, fused parts or gaps): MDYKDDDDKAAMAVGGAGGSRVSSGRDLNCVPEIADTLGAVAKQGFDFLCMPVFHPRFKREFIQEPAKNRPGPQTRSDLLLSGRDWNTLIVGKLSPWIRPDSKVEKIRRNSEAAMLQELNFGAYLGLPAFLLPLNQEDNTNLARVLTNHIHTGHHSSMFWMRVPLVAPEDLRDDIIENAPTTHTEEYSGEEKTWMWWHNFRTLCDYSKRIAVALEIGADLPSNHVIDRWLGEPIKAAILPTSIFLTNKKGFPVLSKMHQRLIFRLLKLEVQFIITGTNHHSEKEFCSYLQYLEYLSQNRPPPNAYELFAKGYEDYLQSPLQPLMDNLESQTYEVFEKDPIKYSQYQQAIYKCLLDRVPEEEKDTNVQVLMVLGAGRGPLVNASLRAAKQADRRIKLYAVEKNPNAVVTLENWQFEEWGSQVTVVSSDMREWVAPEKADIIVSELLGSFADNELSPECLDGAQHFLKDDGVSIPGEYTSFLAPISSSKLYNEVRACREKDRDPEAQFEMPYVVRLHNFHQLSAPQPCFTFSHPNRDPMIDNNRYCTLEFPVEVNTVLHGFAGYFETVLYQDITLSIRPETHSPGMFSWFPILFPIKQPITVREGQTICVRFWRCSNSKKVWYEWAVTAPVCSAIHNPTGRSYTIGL
# T1 sequence (Q9BQA1 with tags, fused parts or gaps partner limits assumed): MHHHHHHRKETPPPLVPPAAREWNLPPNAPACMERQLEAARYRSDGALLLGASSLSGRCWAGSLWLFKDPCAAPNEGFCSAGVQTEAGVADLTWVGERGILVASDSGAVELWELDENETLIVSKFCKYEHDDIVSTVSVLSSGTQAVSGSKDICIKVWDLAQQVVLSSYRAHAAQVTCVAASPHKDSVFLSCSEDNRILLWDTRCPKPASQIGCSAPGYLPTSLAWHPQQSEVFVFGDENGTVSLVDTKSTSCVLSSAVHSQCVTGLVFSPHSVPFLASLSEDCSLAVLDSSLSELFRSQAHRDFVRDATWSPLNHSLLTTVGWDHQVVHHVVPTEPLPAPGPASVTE
# Method in brief: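 FLAG-PRMT5/His-MEP50 from Sf9 cells (4 nM) preincubated 30 min at 25 °C with compounds, then reacted with 75 nM 3H-SAM and 40 nM biotinylated histone H4 1-15 peptide in Bicine pH 7.6, 1% DMSO. Stopped with 600 uM cold SAM; streptavidin Flashplate capture, scintillation counts; % inhibition fitted to 3- or 4-parameter curve.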
Compound,EC50 (Z-138 cell line),IC50 (PRMT5/MEP50)
"CC(=O)N1CCC(Nc2cc(C(=O)NC[C@H](O)CN3CCc4ncn(C)c4C3)ccn2)CC1 [Compound 3-24, (S)-2-((1-acetylpiperidin-4-yl)amino)-N-(2-hydroxy-3-(3-methyl-6,7-dihydro-3H-imidazo[4,5-c]pyridin-5(4H)-yl)propyl)isonicotinamide]",> 5 µM,> 10 µM
"Cn1cnc2c1CN(C[C@@H](O)CNC(=O)c1cc(NC3COC3)ncn1)CC2 [Compound 3-26, (S)—N-(2-hydroxy-3-(3-methyl-6,7-dihydro-3H-imidazo[4,5-c]pyridin-5(4H)-yl)propyl)-6-(oxetan-3-ylamino)pyrimidine-4-carboxamide]",> 5 µM,> 10 µM
Cn1cc2c(n1)CCN(C[C@@H](O)CNC(=O)c1cc(NC3COC3)ncn1)C2 [Compound 3-27],> 5 µM,> 10 µM
Cn1cnc2c1CCN(C[C@@H](O)CNC(=O)c1cc(NC3COC3)ncn1)C2 [Compound 3-28],> 5 µM,> 10 µM
"CC(=O)N1CC(Nc2cc(C(=O)NC[C@H](O)CN3CCc4[nH]cnc4C3)ncn2)C1 [Compound 3-33, (S)-6-((1-acetylazetidin-3-yl)amino)-N-(3-(6,7-dihydro-1H-imidazo[4,5-c]pyridin-5(4H)-yl)-2-hydroxypropyl)pyrimidine-4-carboxamide]",> 5 µM,> 10 µM
"CC(=O)N1CCC(Nc2cc(C(=O)NC[C@H](O)CN3CCc4[nH]cnc4C3)ncn2)CC1 [Compound 3-34, (S)-6-((1-acetylpiperidin-4-yl)amino)-N-(3-(6,7-dihydro-1H-imidazo[4,5-c]pyridin-5(4H)-yl)-2-hydroxypropyl)pyrimidine-4-carboxamide]",> 5 µM,> 10 µM
"CC(=O)N1CCC(Nc2cc(C(=O)NC[C@H](O)CN3CCc4c(ncn4C)C3)ncn2)CC1 [Compound 3-35, (S)-6-((1-acetylpiperidin-4-yl)amino)-N-(2-hydroxy-3-(1-methyl-6,7-dihydro-1H-imidazo[4,5-c]pyridin-5(4H)-yl)propyl)pyrimidine-4-carboxamide]",> 5 µM,> 10 µM
"CC(=O)N1CCC(Nc2cc(C(=O)NC[C@H](O)CN3CCc4[nH]cnc4C3)ccn2)CC1 [Compound 3-36, (S)-2-((1-acetylpiperidin-4-yl)amino)-N-(3-(6,7-dihydro-1H-imidazo[4,5-c]pyridin-5(4H)-yl)-2-hydroxypropyl)isonicotinamide]",> 5 µM,> 10 µM
"O=C(NC[C@H](O)CN1CCc2[nH]cnc2C1)c1cc(NC2COC2)ncn1 [Compound 3-38, (S)—N-(3-(6,7-dihydro-1H-imidazo[4,5-c]pyridin-5(4H)-yl)-2-hydroxypropyl)-6-(oxetan-3-ylamino)pyrimidine-4-carboxamide]",> 5 µM,> 10 µM
Cn1ncc2c1CCCN2C[C@@H](O)CNC(=O)c1cc(NC2COC2)ncn1 [Compound 3-40],> 5 µM,> 10 µM
Cc1nc2c([nH]1)CCN(C[C@@H](O)CNC(=O)c1cc(NC3COC3)ncn1)C2 [Compound 3-41],> 5 µM,> 10 µM
CC(=O)N1CC(Nc2cc(C(=O)NC[C@H](O)CN3CCc4cn[nH]c4C3)ncn2)C1 [Compound 3-44],> 5 µM,> 10 µM
CC(=O)N1CC(Nc2cc(C(=O)NC[C@H](O)CN3CCc4c(ncn4C)C3)ncn2)C1 [Compound 3-45],> 5 µM,> 10 µM
CC(=O)N1CC(Nc2cc(C(=O)NC[C@H](O)CN3CCCc4c3cnn4C)ncn2)C1 [Compound 3-46],> 5 µM,> 10 µM
CC(=O)N1CC(Nc2cc(C(=O)NC[C@H](O)CN3CCc4[nH]c(C)nc4C3)ncn2)C1 [Compound 3-47],> 5 µM,> 10 µM
CC(=O)N1CCC(Nc2cc(C(=O)NC[C@H](O)CN3CCc4cn[nH]c4C3)ccn2)CC1 [Compound 3-50],> 5 µM,> 10 µM
CC(=O)N1CCC(Nc2cc(C(=O)NC[C@H](O)CN3CCc4cn[nH]c4C3)ncn2)CC1 [Compound 3-51],> 5 µM,> 10 µM
CC(=O)N1CCC(Nc2cc(C(=O)NC[C@H](O)CN3CCc4c(cnn4C)C3)ccn2)CC1 [Compound 3-52],> 5 µM,1 to 10 µM
CC(=O)N1CCC(Nc2cc(C(=O)NC[C@H](O)CN3CCc4nn(C)cc4C3)ccn2)CC1 [Compound 3-53],> 5 µM,1 to 10 µM
CC(=O)N1CCC(Nc2cc(C(=O)NC[C@H](O)CN3CCc4nc(C)[nH]c4C3)ccn2)CC1 [Compound 3-54],> 5 µM,> 10 µM
CC(=O)N1CCC(Nc2cc(C(=O)NC[C@H](O)CN3CCc4c(cnn4C)C3)ncn2)CC1 [Compound 3-56],> 5 µM,> 10 µM
CC(=O)N1CCC(Nc2cc(C(=O)NC[C@H](O)CN3CCc4nn(C)cc4C3)ncn2)CC1 [Compound 3-57],> 5 µM,> 10 µM
CC(=O)N1CCC(Nc2cc(C(=O)NC[C@H](O)CN3CCCc4c3cnn4C)ncn2)CC1 [Compound 3-58],> 5 µM,> 10 µM
"Cc1nc2c(o1)CCN(C[C@@H](O)CNC(=O)c1cc(NC3COC3)ncn1)C2 [Compound 4-1, (S)—N-(2-hydroxy-3-(2-methyl-6,7-dihydrooxazolo[4,5-c]pyridin-5(4H)-yl)propyl)-6-(oxetan-3-ylamino)pyrimidine-4-carboxamide]",> 5 µM,> 10 µM
"CC(=O)N1CC(Nc2cc(C(=O)NC[C@H](O)CN3CCc4oc(C)nc4C3)ncn2)C1 [Compound 4-2, (S)-6-((1-acetylazetidin-3-yl)amino)-N-(2-hydroxy-3-(2-methyl-6,7-dihydrooxazolo[4,5-c]pyridin-5(4H)-yl)propyl)pyrimidine-4-carboxamide]",> 5 µM,> 10 µM
"CC(=O)N1CCC(Nc2cc(C(=O)NC[C@H](O)CN3CCc4oc(C)nc4C3)ncn2)CC1 [Compound 4-3, (S)-6-((1-acetylpiperidin-4-yl)amino)-N-(2-hydroxy-3-(2-methyl-6,7-dihydrooxazolo[4,5-c]pyridin-5(4H)-yl)propyl)pyrimidine-4-carboxamide]",> 5 µM,> 10 µM
"CC(=O)N1CCC(Nc2cc(C(=O)NC[C@H](O)CN3CCc4oc(C)nc4C3)ccn2)CC1 [Compound 4-4, (S)-2-((1-acetylpiperidin-4-yl)amino)-N-(2-hydroxy-3-(2-methyl-6,7-dihydrooxazolo[4,5-c]pyridin-5(4H)-yl)propyl)isonicotinamide]",> 5 µM,> 10 µM
